Results on three compounds are retold here after patent US11912705B2, “Cathinone derivatives, pharmaceutical formulations, and methods” (The Corporation of Mercer University, priority 2020, dated 2024).

pIC50, pKi: −log10 of the molar value.

The target in assay [1] is T1, human M2R (Homo sapiens, UniProt P08172).
T1 construct: host or cells: HEK293 (CRL-1573, ATCC), transient
T1 sequence (P08172 1-466): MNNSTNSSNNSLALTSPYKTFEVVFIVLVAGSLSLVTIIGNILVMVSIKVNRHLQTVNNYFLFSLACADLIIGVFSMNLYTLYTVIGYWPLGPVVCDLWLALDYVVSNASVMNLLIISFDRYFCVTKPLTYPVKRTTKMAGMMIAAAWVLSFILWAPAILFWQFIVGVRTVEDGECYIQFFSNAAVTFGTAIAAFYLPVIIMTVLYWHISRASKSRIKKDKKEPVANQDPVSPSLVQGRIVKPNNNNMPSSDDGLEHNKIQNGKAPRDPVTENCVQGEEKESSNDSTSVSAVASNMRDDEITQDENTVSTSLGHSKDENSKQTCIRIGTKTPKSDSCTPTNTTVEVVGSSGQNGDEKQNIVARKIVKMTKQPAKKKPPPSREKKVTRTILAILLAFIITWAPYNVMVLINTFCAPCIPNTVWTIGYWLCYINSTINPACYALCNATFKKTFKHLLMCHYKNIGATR
Kind of assay: M2R cAMP signaling (forskolin-stimulated cAMP, oxotremorine agonist). Format: cell-based. On the procedure:
The M2R coupled to Gαi/o proteins, and its agonism functioned to decrease formation of the intracellular second messenger cyclic-adenosine-monophosphate (cAMP). […] In the presence of oxotremorine, an antagonist of the M2R would be expected to reverse the effects of the agonist, thereby increasing cAMP formation.
M2R cAMP Signaling: cAMP measurements were performed with the cAMP Hunter eXpress® CHRM2 CHO-K1 GPCR assay (Eurofins DiscoveRx, Fremont, Calif., USA) according to the manufacturer's protocol. Briefly, in the provided 96-well tissue culture-treated plate, 100 μL of human M2R expressing CHO-K1 cells were seeded in cell plating reagent and incubated (37° C., 5% CO2, 95% humidity) overnight. Cell plating reagent was replaced with 30 μL of cell assay buffer the next day. For agonist stimulation, cells were treated with increasing half-log unit concentrations of oxotremorine in the presence of 10 μM forskolin, followed by incubation for 30 minutes. A cAMP antibody, cAMP working detection solution and enzyme acceptor solution were then added according to the protocol, and the final chemiluminescent signals were detected by a Mithras LB 940 microplate reader (Berthold Technologies, Bad Wildbad, Germany). Antagonist tests were run by pretreating cells with increasing half-log unit concentrations of α-PHP, followed by incubation for one hour. Cells were then treated with EC80 concentration of oxotremorine (130 nM) and 10 μM forskolin. The same incubation and detection procedure used for agonist assays was used for the remaining steps.
(§1) Curve Fitting and Statistical Analyses: All data were analyzed by GraphPad 8.3.0 (San Diego, Calif., USA). Ki values were determined from data fit to both one- and two-site models. […] EC50 and IC50 values from functional assays were determined from data fit to the log(agonist) vs. response (three parameters) or log(inhibitor) vs. response (three parameters) model, respectively. Kb values were calculated from IC50 values using the Cheng-Prusoff equation with modification (see, e.g., Leff, P., and Dougall, I. G. (1993) Trends Pharmacol Sci 14, 110-112): Kb=IC50/((2+([A]/[A50])nH)1/nH−1)

The target in assay [2] is T2, Serotonin transporter (Rattus norvegicus, UniProt P31652).
T2 construct: tissue Eurofins/Cerep (contract testing); host or cells: rat brain synaptosomes (per the earlier reading)
In words: Serotonin transporter uptake (rat brain synaptosomes). Type of assay: biochemical. The method, then: (§2) Compounds (1) and (2) were tested at several concentrations for IC50 or EC50 determination at target receptors. […] For antagonist assays, Kb affinity values were calculated from IC50 values using GraphPad Prism 9 (San Diego, Calif. USA).

In assay [3] the target is T3, human M5R (Homo sapiens, UniProt P08912).
T3 construct: host or cells: HEK293 (CRL-1573, ATCC), transient
T3 sequence (P08912 1-532): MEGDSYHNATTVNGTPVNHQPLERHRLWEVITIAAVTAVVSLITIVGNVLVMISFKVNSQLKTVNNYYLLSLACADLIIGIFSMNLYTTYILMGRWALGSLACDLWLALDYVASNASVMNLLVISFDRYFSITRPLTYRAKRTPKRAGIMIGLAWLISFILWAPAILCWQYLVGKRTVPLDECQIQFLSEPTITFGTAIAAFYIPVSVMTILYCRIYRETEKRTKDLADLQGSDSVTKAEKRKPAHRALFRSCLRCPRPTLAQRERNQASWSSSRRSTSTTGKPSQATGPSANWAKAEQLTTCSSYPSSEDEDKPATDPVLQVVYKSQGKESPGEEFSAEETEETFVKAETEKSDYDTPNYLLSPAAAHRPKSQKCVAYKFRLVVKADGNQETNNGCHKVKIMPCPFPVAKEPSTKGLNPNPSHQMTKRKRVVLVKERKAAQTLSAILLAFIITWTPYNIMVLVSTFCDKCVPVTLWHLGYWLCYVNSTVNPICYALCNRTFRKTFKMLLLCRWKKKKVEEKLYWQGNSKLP
In words: [3H]Scopolamine radioligand competition binding at M5R. The method, then: Radioligand Competition Binding: Radioligand competition binding assays were conducted using membranes collected from transiently transfected HEK293 cells (P<20 from a procured stock, CRL-1573, ATCC, Manassas, Va., USA) as previously described (Chen, Y., et al. Drug Test Anal 11, 990-998). Briefly, cells ˜90% confluent in 10 cm plates were transfected with 5 μg human M1R, M2R, M3R, M4R or […] cDNA (cDNA resource center, Bloomsburg, Pa., USA) using a lipid-based method (LipoD293 reagent, SignaGen Laboratories, Rockville, Md., USA). Membranes were collected by centrifugation about 48 hours later and stored at −80° C. until used. […] After a 90-minute incubation at room temperature on a shaker, contents from the plates were rapidly filtered through GF/B fiberglass filter mats, pre-soaked with ice cold 50 mM Tris buffer (pH 7.4), using a Microbeta Filtermat-96 cell harvester (Perkin Elmer, Waltham, Mass., USA). Approximately 200 mL of ice cold, 50 mM Tris buffer was then vacuumed through filter mats to wash away unbound radioligand. Filter mats were dried on a hot plate and soaked in Betaplate (Perkin Elmer, Waltham, Mass., USA) scintillation fluid in plastic bags. Bags were sealed and placed in cassettes. Radioactivity was measured in a Microbeta2 Microplate Counter (Perkin Elmer, Waltham, Mass., USA), and counts per minute corresponding to each well on the plates were recorded. For full dose-response competition binding assays, increasing half-log unit concentrations of five unsubstituted PSCs were tested at M2Rs and M1Rs, with the same procedures described above.
as §1
On the technique in general: Loss of bound radioactivity is the signal in a displacement assay; it reports binding, not function.

The target in assay [4] is T4, 5-HT transporter (h) (Homo sapiens, UniProt P31645).
T4 construct: Eurofins/Cerep (contract testing)
Kind of assay: Serotonin transporter (antagonist radioligand) competition binding. The following applies: for Affinity (Ki) SERT: Eurofins/Cerep, N.B. denotes no binding at 100 μM. The method, then:
as §2

For assay [5], the target named is T5, Dopamine transporter (h) (Homo sapiens, UniProt Q01959).
T5 construct: Eurofins/Cerep (contract testing)
In words: Dopamine transporter (h) (antagonist radioligand) competition binding. To be noted: for nH: Dopamine transporter (h) (antagonist radioligand). On the procedure:
as §2

T5 sequence (Q01959 whole entry): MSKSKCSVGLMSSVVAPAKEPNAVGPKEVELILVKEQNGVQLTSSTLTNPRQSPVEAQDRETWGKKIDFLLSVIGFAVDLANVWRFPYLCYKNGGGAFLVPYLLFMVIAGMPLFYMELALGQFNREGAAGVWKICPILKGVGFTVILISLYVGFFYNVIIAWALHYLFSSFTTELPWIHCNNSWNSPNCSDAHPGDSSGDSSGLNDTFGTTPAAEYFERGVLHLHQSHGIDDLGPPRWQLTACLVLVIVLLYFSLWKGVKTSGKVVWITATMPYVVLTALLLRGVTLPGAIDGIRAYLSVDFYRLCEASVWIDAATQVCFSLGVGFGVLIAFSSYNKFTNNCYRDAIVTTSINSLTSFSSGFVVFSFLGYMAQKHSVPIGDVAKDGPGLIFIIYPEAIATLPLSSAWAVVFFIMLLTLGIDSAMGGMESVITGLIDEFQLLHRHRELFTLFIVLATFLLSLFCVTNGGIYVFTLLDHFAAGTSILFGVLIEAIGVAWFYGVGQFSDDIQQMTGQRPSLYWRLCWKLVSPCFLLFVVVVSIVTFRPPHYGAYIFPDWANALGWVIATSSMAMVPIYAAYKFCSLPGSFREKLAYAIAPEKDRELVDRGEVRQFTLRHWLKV
T4 sequence (P31645 whole entry): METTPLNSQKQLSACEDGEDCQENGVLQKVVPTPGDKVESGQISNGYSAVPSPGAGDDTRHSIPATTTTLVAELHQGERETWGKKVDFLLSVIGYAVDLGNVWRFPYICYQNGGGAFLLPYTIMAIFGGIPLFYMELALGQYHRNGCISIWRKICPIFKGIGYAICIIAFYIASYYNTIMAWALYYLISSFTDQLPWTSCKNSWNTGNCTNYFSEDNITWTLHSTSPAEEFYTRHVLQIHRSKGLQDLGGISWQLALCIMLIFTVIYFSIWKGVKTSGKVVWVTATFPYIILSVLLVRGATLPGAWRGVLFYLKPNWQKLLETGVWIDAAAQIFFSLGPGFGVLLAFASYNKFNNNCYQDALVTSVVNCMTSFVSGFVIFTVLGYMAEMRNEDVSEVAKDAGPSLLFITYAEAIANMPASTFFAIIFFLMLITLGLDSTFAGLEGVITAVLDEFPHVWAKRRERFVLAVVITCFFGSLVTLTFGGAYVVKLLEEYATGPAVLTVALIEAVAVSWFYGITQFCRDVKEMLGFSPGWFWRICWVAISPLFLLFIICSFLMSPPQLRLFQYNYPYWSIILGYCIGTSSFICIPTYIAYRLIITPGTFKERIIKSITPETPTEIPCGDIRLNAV
T2 sequence (P31652 whole entry): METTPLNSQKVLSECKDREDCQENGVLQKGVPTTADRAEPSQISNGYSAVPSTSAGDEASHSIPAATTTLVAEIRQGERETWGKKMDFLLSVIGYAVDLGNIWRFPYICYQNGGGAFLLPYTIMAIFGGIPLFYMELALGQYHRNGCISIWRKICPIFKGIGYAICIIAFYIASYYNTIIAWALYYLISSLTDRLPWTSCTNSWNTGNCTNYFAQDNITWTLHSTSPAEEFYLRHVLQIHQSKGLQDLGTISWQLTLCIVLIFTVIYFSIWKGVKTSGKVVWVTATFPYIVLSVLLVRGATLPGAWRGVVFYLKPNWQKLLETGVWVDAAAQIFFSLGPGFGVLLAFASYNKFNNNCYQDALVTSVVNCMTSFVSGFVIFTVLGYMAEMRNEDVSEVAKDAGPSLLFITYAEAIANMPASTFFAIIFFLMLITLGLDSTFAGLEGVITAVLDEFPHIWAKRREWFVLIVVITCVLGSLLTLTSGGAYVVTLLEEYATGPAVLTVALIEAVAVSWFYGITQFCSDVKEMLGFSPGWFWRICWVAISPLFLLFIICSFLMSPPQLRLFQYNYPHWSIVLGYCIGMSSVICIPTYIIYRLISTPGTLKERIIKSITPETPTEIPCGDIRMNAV

Usually pIC50 stands for the IC50 on a negative log10 scale, so that one unit is a factor of ten. Read a high pIC50 as a small IC50. The pKi is the Ki on a negative log10 scale, so that one unit is a factor of ten. A lower pKi goes with a large Ki. In turn, `CCCCC(C(=O)c1ccccc1)N1CCCCC1` (centres unmarked) [Compound (1), 1-phenyl-2-(piperidin-1-yl)hexan-1-one] showed a Kb in assay [1] of 126 nM. Besides, the results for the negative logarithm of the IC50 (pIC50) in assay [2], in assay [4] and in assay [5] were 4.43, less than 4.00 and 7.14, respectively. For the same compound, the negative-log Ki (pKi) is 6.17 in assay [3] and 7.42 in assay [5]. The “Affinity (Ki) SERT” value is “neither compound exhibiting demonstrable binding at SERT” in assay [4] and “N.B” in assay [4] (listed as Compound 1). Further, in assay [5], the nH is on record as 1.

`CCCCC(C(=O)c1ccccc1)N1CCCCCC1` (centres unmarked) [Compound (2), 2-(azepan-1-yl)-1-phenylhexan-1-one]: the Kb in assay [1] is 158 nM. Moreover, the negative logarithm of the IC50 (pIC50) in assay [2] is 4.92; in assay [4], less than 4.00; in assay [5] it was 7.00. The pKi is 5.99 in assay [3] and 7.27 in assay [5]. Moreover, the “Affinity (Ki) SERT” value is recorded as “neither compound exhibiting demonstrable binding at SERT” in assay [4] and “N.B” in assay [4] (listed as Compound 2). In assay [5], this compound displayed a nH of 0.9.

Compound `CCCCC(C(=O)c1ccccc1)N1CCCC1` (stereo not drawn) [α-PHP, 1-phenyl-2-(pyrrolidin-1-yl)hexan-1-one] came in with a Kb in assay [1] of 120 nM. The compound further had a negative-log Ki (pKi) in assay [3] of 5.82.
